Source: Sander's compilation of Henry's law constants (doi:10.1016/j.chemosphere.2021.129858)

Assay: Henry solubility constant Hcp at 298.15 K (mol/(m3 Pa))
Settings: reference: Schwardt et al. (2021)

| Structure (SMILES) | Henry solubility constant Hcp |
| --- | --- |
| Cc1ccc(C)cc1 [1,4-dimethylbenzene] | 0.001 |
| Clc1ccccc1 [chlorobenzene] | 0.002 |
| C=C(Cl)Cl [1,1-dichloroethene] | 0.0004 |
| ClC(Cl)=C(Cl)Cl [tetrachloroethene] | 0.00058 |
| ClCC(Cl)Cl [1,1,2-trichloroethane] | 0.0073 |
| CCc1ccccc1 [ethylbenzene] | 0.0013 |
| C=CCl [chloroethene] | 0.00039 |
| ClCC(Cl)(Cl)Cl [1,1,1,2-tetrachloroethane] | 0.0045 |
| ClC=C(Cl)Cl [trichloroethene] | 0.001 |
